Data published in PubChem BioAssay (NCI).
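Interpolation was linear, between the two tested concentrations surrounding the appropriate level; five concentrations were tested over 48 hours in 96-well plates. GI50: concentration for 50% inhibition of growth. TGI denotes the concentration required for complete inhibition of growth.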

Experiments:
Assay in all cases: NCI anticancer screen, dose series, 48 h
[1] = system: 786-0 renal
[2] = system: A498 renal
[3] = system: A549 NSCLC
[4] = system: ACHN renal
[5] = system: BT-549 breast
[6] = system: CAKI-1 renal
[7] = system: CCRF-CEM leukemia
[8] = system: COLO 205 colon
[9] = system: DU-145 prostate
[10] = system: EKVX NSCLC
[11] = system: HCC-2998 colon
[12] = system: HCT-116 colon
[13] = system: HCT-15 colon
[14] = system: HOP-62 NSCLC
[15] = system: HOP-92 NSCLC
[16] = system: HS 578T breast
[17] = system: HT29 colon
[18] = system: IGROV1 ovarian
[19] = system: K-562 leukemia
[20] = system: KM12 colon
[21] = system: LOX IMVI melanoma
[22] = system: M14 melanoma
[23] = system: MALME-3M melanoma
[24] = system: MCF7 breast
[25] = system: MDA-MB-231 breast
[26] = system: MDA-MB-435
[27] = system: MOLT-4 leukemia
[28] = system: NCI-H226 lung
[29] = system: NCI-H23 lung
[30] = system: NCI-H460 lung
[31] = system: NCI-H522 lung
[32] = system: NCI/ADR-RES ovarian
[33] = system: OVCAR-3 ovarian
[34] = system: OVCAR-4 ovarian
[35] = system: OVCAR-5 ovarian
[36] = system: OVCAR-8 ovarian
[37] = system: PC-3 prostate
[38] = system: RPMI-8226 leukemia
[39] = system: RXF 393 renal
[40] = system: SF-268 CNS
[41] = system: SF-295 CNS
[42] = system: SF-539 CNS
[43] = system: SK-MEL-2 melanoma
[44] = system: SK-MEL-28 melanoma
[45] = system: SK-MEL-5 melanoma
[46] = system: SK-OV-3 ovarian
[47] = system: SN12C renal
[48] = system: SNB-19 CNS
[49] = system: SNB-75 CNS
[50] = system: SR leukemia
[51] = system: SW-620 colon
[52] = system: T-47D breast
[53] = system: TK-10 renal
[54] = system: U251 CNS
[55] = system: UACC-257 melanoma
[56] = system: UACC-62 melanoma
[57] = system: UO-31 renal
[58] = system: HL-60(TB) leukemia

`COc1cc2c(c3oc(-c4ccc(O)cc4)c(O)c(=O)c13)CCC(C)(C)O2` gave a GI50 [1] of 78.8 nM, a TGI [1] of 214 nM and a GI50 [2] of 148 nM. It also gave a TGI [2] of 538 nM, a GI50 [3] of 270 nM and a TGI [3] of 729 nM. For the same molecule, the GI50 [4] was 145 nM, the GI50 [5] was 279 nM and the TGI [5] was 836 nM. It also gave a GI50 [6] of 245 nM, a TGI [6] of 1170 nM and a GI50 [7] of 359 nM. It also gave a TGI [7] greater than 100000 nM, a GI50 [8] of 2180 nM and a TGI [8] of 5020 nM. It also gave a GI50 [9] of 295 nM, a TGI [9] greater than 44900 nM and a GI50 [10] of 308 nM. For the same molecule, the GI50 [11] was 254 nM, the TGI [11] was 672 nM and the GI50 [12] was 172 nM. For the same molecule, the TGI [12] was 372 nM, the GI50 [13] was 169 nM and the TGI [13] was 392 nM. The GI50 [14] was 71.2 nM, the TGI [14] was 165 nM and the GI50 [15] was 217 nM. For the same molecule, the TGI [15] was 902 nM, the GI50 [16] was 90.3 nM and the GI50 [17] was 3120 nM. The TGI [17] was 10900 nM, the GI50 [18] was 158 nM and the TGI [18] was 526 nM. It also gave a GI50 [19] of 112 nM, a GI50 [20] of 384 nM and a TGI [20] of 23400 nM. It also gave a GI50 [21] of 104 nM, a TGI [21] of 328 nM and a GI50 [22] of 212 nM. It also gave a TGI [22] of 523 nM, a GI50 [23] of 1420 nM and a TGI [23] greater than 100000 nM. The GI50 [24] was 381 nM, the TGI [24] was greater than 100000 nM and the GI50 [25] was 101 nM. It also gave a TGI [25] of 312 nM, a GI50 [26] of 42.7 nM and a TGI [26] of 204 nM. It also gave a GI50 [27] of 191 nM, a GI50 [28] of 536 nM and a TGI [28] of 2550 nM. For the same molecule, the GI50 [29] was 83.6 nM, the TGI [29] was 221 nM and the GI50 [30] was 99.6 nM. It also gave a TGI [30] of 351 nM, a GI50 [31] of 77.6 nM and a TGI [31] of 232 nM. The GI50 [32] was 309 nM, the TGI [32] was 829 nM and the GI50 [33] was 431 nM. It also gave a TGI [33] of 27400 nM, a GI50 [34] of 900 nM and a TGI [34] of 2880 nM. For the same molecule, the GI50 [35] was 229 nM, the TGI [35] was 622 nM and the GI50 [36] was 292 nM. For the same molecule, the TGI [36] was 856 nM, the GI50 [37] was 1170 nM and the TGI [37] was greater than 100000 nM. For the same molecule, the GI50 [38] was 305 nM, the TGI [38] was 787 nM and the GI50 [39] was 37.9 nM. The TGI [39] was 176 nM, the GI50 [40] was 122 nM and the GI50 [41] was 42.6 nM. The TGI [41] was 194 nM, the GI50 [42] was 24.1 nM and the TGI [42] was 58.6 nM. The GI50 [43] was 326 nM, the GI50 [44] was 210 nM and the TGI [44] was 930 nM. It also gave a GI50 [45] of 90.8 nM, a TGI [45] of 241 nM and a GI50 [46] of 401 nM. The TGI [46] was 5400 nM, the GI50 [47] was 271 nM and the TGI [47] was 884 nM. The GI50 [48] was 160 nM, the TGI [48] was greater than 23400 nM and the GI50 [49] was 103 nM. It also gave a TGI [49] of 283 nM, a GI50 [50] of 77.3 nM and a GI50 [51] of 87.2 nM. The TGI [51] was 310 nM, the GI50 [52] was 767 nM and the GI50 [53] was 500 nM. The TGI [53] was greater than 100000 nM, the GI50 [54] was 107 nM and the TGI [54] was 800 nM. It also gave a GI50 [55] of 291 nM, a TGI [55] of 778 nM and a GI50 [56] of 199 nM. It also gave a TGI [56] of 616 nM, a GI50 [57] of 28.1 nM and a TGI [57] of 75 nM.
With `COc1cc(/C=C2\CC3C4CC=C5CC(OC(C)=O)CC[C@]5(C)C4CC[C@]3(C)C2=O)ccc1OCCN1CCCC1` (some centres not stated) the GI50 [1] was 4510 nM, the TGI [1] was 14000 nM and the GI50 [2] was 23700 nM. For the same molecule, the TGI [2] was 43500 nM, the GI50 [3] was 7980 nM and the TGI [3] was greater than 48600 nM. It also gave a GI50 [4] of 5520 nM, a TGI [4] of 17900 nM and a GI50 [5] of 14700 nM. For the same molecule, the TGI [5] was 38300 nM, the GI50 [6] was 13100 nM and the TGI [6] was 27000 nM. It also gave a GI50 [7] of 268 nM, a TGI [7] of 1780 nM and a GI50 [8] of 4830 nM. It also gave a TGI [8] greater than 63800 nM, a GI50 [9] of 13600 nM and a TGI [9] of 26600 nM. For the same molecule, the GI50 [10] was 18000 nM, the TGI [10] was 35400 nM and the GI50 [11] was 12500 nM. For the same molecule, the TGI [11] was 25000 nM, the GI50 [12] was 1520 nM and the TGI [12] was 3140 nM. It also gave a GI50 [13] of 1910 nM, a TGI [13] of 5300 nM and a GI50 [58] of 2780 nM. The TGI [58] was 6890 nM, the GI50 [14] was 9520 nM and the TGI [14] was 23000 nM. For the same molecule, the GI50 [15] was 13500 nM, the TGI [15] was 28600 nM and the GI50 [16] was 20000 nM. It also gave a TGI [16] of 42700 nM, a GI50 [17] of 646 nM and a GI50 [18] of 5810 nM. The TGI [18] was greater than 44700 nM, the GI50 [19] was 1080 nM and the TGI [19] was 7410 nM. The GI50 [20] was 3890 nM, the TGI [20] was 15000 nM and the GI50 [21] was 248 nM. For the same molecule, the TGI [21] was 2550 nM, the GI50 [22] was 1420 nM and the TGI [22] was 2900 nM. The GI50 [24] was 2690 nM, the TGI [24] was greater than 22400 nM and the GI50 [25] was 3390 nM. For the same molecule, the TGI [25] was 11200 nM, the GI50 [26] was 3380 nM and the TGI [26] was 13100 nM. The GI50 [27] was 1870 nM, the TGI [27] was 8500 nM and the GI50 [28] was 14100 nM. It also gave a TGI [28] of 30900 nM, a GI50 [29] of 14200 nM and a TGI [29] of 27700 nM. For the same molecule, the GI50 [30] was 2540 nM, the GI50 [31] was 10500 nM and the TGI [31] was 26600 nM. For the same molecule, the GI50 [32] was 12000 nM, the TGI [32] was 24900 nM and the GI50 [33] was 3000 nM. For the same molecule, the TGI [33] was 10500 nM, the GI50 [34] was 2380 nM and the TGI [34] was greater than 19600 nM. It also gave a GI50 [35] of 13400 nM, a TGI [35] of 26400 nM and a GI50 [36] of 13800 nM. It also gave a TGI [36] of 47000 nM, a GI50 [37] of 8470 nM and a TGI [37] of 23200 nM. It also gave a GI50 [39] of 3010 nM, a TGI [39] of 11600 nM and a GI50 [40] of 8530 nM. For the same molecule, the TGI [40] was 26700 nM, the GI50 [41] was 4800 nM and the TGI [41] was 11800 nM. For the same molecule, the GI50 [42] was 3630 nM, the TGI [42] was 9820 nM and the GI50 [43] was 6990 nM. It also gave a TGI [43] of 23700 nM, a GI50 [44] of 2540 nM and a GI50 [45] of 1380 nM. It also gave a TGI [45] of 2860 nM, a GI50 [46] of 23700 nM and a TGI [46] greater than 63900 nM. The GI50 [47] was 13700 nM, the TGI [47] was 26600 nM and the GI50 [48] was 23600 nM. The TGI [48] was greater than 66900 nM, the GI50 [50] was 708 nM and the TGI [50] was 2870 nM. For the same molecule, the GI50 [51] was 4890 nM, the TGI [51] was 22900 nM and the GI50 [52] was 5400 nM. For the same molecule, the TGI [52] was greater than 91000 nM, the GI50 [53] was 7250 nM and the TGI [53] was 19600 nM. For the same molecule, the GI50 [54] was 4200 nM, the TGI [54] was 14700 nM and the GI50 [55] was 2090 nM. For the same molecule, the TGI [55] was 4200 nM, the GI50 [56] was 1930 nM and the TGI [56] was 3850 nM. It also gave a GI50 [57] of 8670 nM and a TGI [57] of 23500 nM.
